≈ marks a conversion by molar mass, not a printed value.
What was measured:
Enterococcus faecium [1] = test: Antibacterial activity against Enterococcus faecium EFM17-2 measured by liquid dilution method; assay type: functional
[2] = tested on: Staphylococcus epidermidis; test: Antibacterial activity against methicillin-resistant Staphylococcus epidermidis MRSE17-3 measured by liquid dilution method; assay type: functional
[3] = tested on: Staphylococcus epidermidis; test: Antibacterial activity against methicillin-resistant Staphylococcus epidermidis MRSE17-1 measured by liquid dilution method; assay type: functional
Staphylococcus aureus [4] = test: Antibacterial activity against methicillin-resistant Staphylococcus aureus MRSA17-5 measured by liquid dilution method; assay type: functional
[5] = tested on: Staphylococcus epidermidis; test: Antibacterial activity against methicillin-resistant Staphylococcus epidermidis MRSE17-6 measured by liquid dilution method; assay type: functional
Staphylococcus aureus [6] = test: Antibacterial activity against methicillin-sensitive Staphylococcus aureus MSSA17-3 measured by liquid dilution method; assay type: functional
[7] = tested on: Staphylococcus epidermidis; test: Antibacterial activity against methicillin-sensitive Staphylococcus epidermidis MSSE17-2 measured by liquid dilution method; assay type: functional
Staphylococcus aureus [8] = test: Antibacterial activity against Staphylococcus aureus ATCC 29213 measured by liquid dilution method; assay type: functional
Staphylococcus aureus [9] = test: Antibacterial activity against methicillin-resistant Staphylococcus aureus MRSA17-3 measured by liquid dilution method; assay type: functional
Enterococcus faecium [10] = test: Antibacterial activity against Enterococcus faecium EFM17-1 measured by liquid dilution method; assay type: functional
Staphylococcus aureus [11] = test: Antibacterial activity against methicillin-resistant Staphylococcus aureus ATCC 43300 measured by liquid dilution method; assay type: functional
Staphylococcus aureus [12] = test: Antibacterial activity against methicillin-sensitive Staphylococcus aureus MSSA17-2 measured by liquid dilution method; assay type: functional
[13] = tested on: Staphylococcus epidermidis; test: Antibacterial activity against methicillin-sensitive Staphylococcus epidermidis MSSE17-1 measured by liquid dilution method; assay type: functional
[14] = tested on: Staphylococcus epidermidis; test: Antibacterial activity against methicillin-resistant Staphylococcus epidermidis MRSE17-4 measured by liquid dilution method; assay type: functional
[15] = tested on: Staphylococcus epidermidis; test: Antibacterial activity against methicillin-resistant Staphylococcus epidermidis MRSE17-2 measured by liquid dilution method; assay type: functional
[16] = tested on: Staphylococcus epidermidis; test: Antibacterial activity against methicillin-sensitive Staphylococcus epidermidis MSSE17-3 measured by liquid dilution method; assay type: functional
Staphylococcus aureus [17] = test: Antibacterial activity against vancomycin-intermediate Staphylococcus aureus ATCC 700699 measured by liquid dilution method; assay type: functional
Staphylococcus aureus [18] = test: Antibacterial activity against methicillin-resistant Staphylococcus aureus MRSA17-2 measured by liquid dilution method; assay type: functional
Staphylococcus aureus [19] = test: Antibacterial activity against methicillin-resistant Staphylococcus aureus MRSA17-1 measured by liquid dilution method; assay type: functional
Staphylococcus aureus [20] = test: Antibacterial activity against methicillin-sensitive Staphylococcus aureus MSSA17-1 measured by liquid dilution method; assay type: functional
Enterococcus faecalis [21] = test: Antibacterial activity against Enterococcus faecalis EFA17-1 measured by liquid dilution method; assay type: functional
Staphylococcus aureus [22] = test: Antibacterial activity against methicillin-resistant Staphylococcus aureus ATCC 33591 measured by liquid dilution method; assay type: functional
Enterococcus faecalis [23] = test: Antibacterial activity against Enterococcus faecalis ATCC 29212 measured by liquid dilution method; assay type: functional
Staphylococcus aureus [24] = test: Antibacterial activity against vancomycin-intermediate Staphylococcus aureus ATCC 700788 measured by liquid dilution method; assay type: functional
Staphylococcus aureus [25] = test: Antibacterial activity against methicillin-resistant Staphylococcus aureus MRSA17-6 measured by liquid dilution method; assay type: functional
[26] = Plasma protein binding in CD-1 mouse plasma incubated for 4 hrs and assessed as unbound fraction at 2 uM measured by LC/MS/MS analysis; assay type: ADME, cell-free
[27] = Plasma protein binding in CD-1 mouse plasma incubated for 4 hrs at 2 uM measured by LC/MS/MS analysis; assay type: ADME, cell-free; conditions: read-out: PPB (converted)

| Compound | MIC (Enterococcus faecium [1]) | MIC [2] | MIC [3] | MIC (Staphylococcus aureus [4]) | MIC [5] | MIC (Staphylococcus aureus [6]) | MIC [7] | MIC (Staphylococcus aureus [8]) | MIC (Staphylococcus aureus [9]) | MIC (Enterococcus faecium [10]) | MIC (Staphylococcus aureus [11]) | MIC (Staphylococcus aureus [12]) | MIC [13] | MIC [14] | MIC [15] | MIC [16] | MIC (Staphylococcus aureus [17]) | MIC (Staphylococcus aureus [18]) | MIC (Staphylococcus aureus [19]) | MIC (Enterococcus faecalis [21]) | also measured |
| --- | --- | --- | --- | --- | --- | --- | --- | --- | --- | --- | --- | --- | --- | --- | --- | --- | --- | --- | --- | --- | --- |
| CNC1=NC(=O)[C@H]([C@H](C)c2c[nH]c3cc(F)ccc23)O1 | > 128 µg/mL | 4 µg/mL (≈ 14.5 µM) | 16 µg/mL (≈ 58.1 µM) | 16 µg/mL (≈ 58.1 µM) | 16 µg/mL (≈ 58.1 µM) | 8 µg/mL (≈ 29.1 µM) | 8 µg/mL (≈ 29.1 µM) | 16 µg/mL (≈ 58.1 µM) | 8 µg/mL (≈ 29.1 µM) | > 128 µg/mL | 8 µg/mL (≈ 29.1 µM) | 16 µg/mL (≈ 58.1 µM) | 8 µg/mL (≈ 29.1 µM) | 16 µg/mL (≈ 58.1 µM) | 16 µg/mL (≈ 58.1 µM) | 8 µg/mL (≈ 29.1 µM) | 4 µg/mL (≈ 14.5 µM) | 8 µg/mL (≈ 29.1 µM) | 8 µg/mL (≈ 29.1 µM) | > 128 µg/mL | MIC (Staphylococcus aureus [20]): 16 µg/mL (≈ 58.1 µM); MIC (Staphylococcus aureus [22]): 16 µg/mL (≈ 58.1 µM); MIC (Enterococcus faecalis [23]): > 128 µg/mL; MIC (Staphylococcus aureus [24]): 8 µg/mL (≈ 29.1 µM); MIC (Staphylococcus aureus [25]): 8 µg/mL (≈ 29.1 µM) |
| CC(=O)CC(c1ccccc1)c1c(O)c2ccccc2oc1=O (centres undefined) [WARFARIN] |  |  |  |  |  |  |  |  |  |  |  |  |  |  |  |  |  |  |  |  | fraction unbound at 4 h, 2 µM [26]: 0.098; fraction unbound at 4 h, 2 µM [27]: 0.098 |
| CNC1=NC(=O)[C@H]([C@H](C)c2c[nH]c3cccc(Br)c23)O1 | > 128 µg/mL | 0.5 µg/mL (≈ 1.49 µM) | 2 µg/mL (≈ 5.95 µM) | 2 µg/mL (≈ 5.95 µM) | 2 µg/mL (≈ 5.95 µM) | 2 µg/mL (≈ 5.95 µM) | 1 µg/mL (≈ 2.97 µM) | 4 µg/mL (≈ 11.9 µM) | 1 µg/mL (≈ 2.97 µM) | > 128 µg/mL | 2 µg/mL (≈ 5.95 µM) | 4 µg/mL (≈ 11.9 µM) | 1 µg/mL (≈ 2.97 µM) | 2 µg/mL (≈ 5.95 µM) | 2 µg/mL (≈ 5.95 µM) | 1 µg/mL (≈ 2.97 µM) | 1 µg/mL (≈ 2.97 µM) | 2 µg/mL (≈ 5.95 µM) | 2 µg/mL (≈ 5.95 µM) | > 128 µg/mL | MIC (Staphylococcus aureus [20]): 2 µg/mL (≈ 5.95 µM); MIC (Staphylococcus aureus [22]): 4 µg/mL (≈ 11.9 µM); MIC (Enterococcus faecalis [23]): > 128 µg/mL; MIC (Staphylococcus aureus [24]): 2 µg/mL (≈ 5.95 µM); MIC (Staphylococcus aureus [25]): 2 µg/mL (≈ 5.95 µM) |
| CN[C@H](CC(C)C)C(=O)N[C@H]1C(=O)N[C@@H](CC(N)=O)C(=O)N[C@H]2C(=O)N[C@H]3C(=O)N[C@H](C(=O)N[C@H](C(=O)O)c4cc(O)cc(O)c4-c4cc3ccc4O)[C@H](O)c3ccc(c(Cl)c3)Oc3cc2cc(c3O[C@@H]2O[C@H](CO)[C@@H](O)[C@H](O)[C@H]2O[C@H]2C[C@](C)(N)[C@H](O)[C@H](C)O2)Oc2ccc(cc2Cl)[C@H]1O [VANCOMYCIN] |  |  |  |  |  |  |  |  |  |  |  |  |  |  |  |  | 8 µg/mL (≈ 5.52 µM) |  |  | 2 µg/mL (≈ 1.38 µM) |  |
| CNC1=NC(=O)[C@@H]([C@@H](C)c2c[nH]c3cccc(Br)c23)O1 | > 128 µg/mL | > 128 µg/mL | > 128 µg/mL | 128 µg/mL (≈ 381 µM) | 128 µg/mL (≈ 381 µM) | 128 µg/mL (≈ 381 µM) | 64 µg/mL (≈ 190 µM) | > 128 µg/mL | 64 µg/mL (≈ 190 µM) | > 128 µg/mL | 128 µg/mL (≈ 381 µM) | 128 µg/mL (≈ 381 µM) | 128 µg/mL (≈ 381 µM) | 128 µg/mL (≈ 381 µM) | 128 µg/mL (≈ 381 µM) | 128 µg/mL (≈ 381 µM) | 128 µg/mL (≈ 381 µM) | 128 µg/mL (≈ 381 µM) | 128 µg/mL (≈ 381 µM) | > 128 µg/mL | MIC (Staphylococcus aureus [20]): 128 µg/mL (≈ 381 µM); MIC (Staphylococcus aureus [22]): 128 µg/mL (≈ 381 µM); MIC (Enterococcus faecalis [23]): > 128 µg/mL; MIC (Staphylococcus aureus [24]): 128 µg/mL (≈ 381 µM); MIC (Staphylococcus aureus [25]): 128 µg/mL (≈ 381 µM) |
| CNC1=NC(=O)[C@@H]([C@@H](C)c2c[nH]c3cc(F)ccc23)O1 | > 128 µg/mL | > 128 µg/mL | > 128 µg/mL | > 128 µg/mL | > 128 µg/mL | > 128 µg/mL | > 128 µg/mL | > 128 µg/mL | > 128 µg/mL | > 128 µg/mL | > 128 µg/mL | > 128 µg/mL | > 128 µg/mL | > 128 µg/mL | > 128 µg/mL | > 128 µg/mL | > 128 µg/mL | > 128 µg/mL | > 128 µg/mL | > 128 µg/mL | MIC (Staphylococcus aureus [20]): > 128 µg/mL; MIC (Staphylococcus aureus [22]): > 128 µg/mL; MIC (Enterococcus faecalis [23]): > 128 µg/mL; MIC (Staphylococcus aureus [24]): > 128 µg/mL; MIC (Staphylococcus aureus [25]): > 128 µg/mL |
| CNC1=NC(=O)[C@@H]([C@@H](C)c2c[nH]c3cccc(C)c23)O1 | > 128 µg/mL | > 128 µg/mL | > 128 µg/mL | > 128 µg/mL | > 128 µg/mL | > 128 µg/mL | > 128 µg/mL | > 128 µg/mL | > 128 µg/mL | > 128 µg/mL | > 128 µg/mL | > 128 µg/mL | > 128 µg/mL | > 128 µg/mL | > 128 µg/mL | > 128 µg/mL | > 128 µg/mL | > 128 µg/mL | > 128 µg/mL | > 128 µg/mL | MIC (Staphylococcus aureus [20]): > 128 µg/mL; MIC (Staphylococcus aureus [22]): > 128 µg/mL; MIC (Enterococcus faecalis [23]): > 128 µg/mL; MIC (Staphylococcus aureus [24]): > 128 µg/mL; MIC (Staphylococcus aureus [25]): > 128 µg/mL |
